# In paper PMC6054100, “Exploring the chemical space of the lysine-binding pocket of the first kringle domain of hepatocyte growth factor/scatter factor (HGF/SF) yields a new class of inhibitors of HGF/SF-MET binding” (Chemical Science, 2015):
# Key:
# NK1 [1] = biological target: T1, NK1 (Homo sapiens, UniProt P14210); experiment: SPR fragment library screening against NK1; type: binding; parameters: made in house; host or cells: Pichia pastoris; conditions: for Ranking order: based on fragment screening, rank among the 71 NK1 hits (ESI Tables S3-S7); for SPR response: normalised relative value against NK1
# T1 sequence (P14210 32-210 isoform P14210-6 limits assumed): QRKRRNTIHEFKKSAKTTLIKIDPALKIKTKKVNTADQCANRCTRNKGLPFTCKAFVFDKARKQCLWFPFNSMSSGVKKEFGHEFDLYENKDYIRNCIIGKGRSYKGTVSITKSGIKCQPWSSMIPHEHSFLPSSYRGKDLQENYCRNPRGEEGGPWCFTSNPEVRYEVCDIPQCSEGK
# Experimental: Supplementary Materials and Methods
# Fragment library screening and data analysis
# Met567 (soluble truncated f ragment of the MET ectodomain, residues 25- 567), NK1 and t he SPH domain were immobilized on CM5 chips by amine coupling. NK1 was diluted into 10 m M phosphate pH 7.0 and the SPH domain into 10 mM acetate pH 5.5 to a final concentration of 2.5 μM and 1 μM, respectively, for coupling. The immobilization wizard within the Biacore T100 software was set to “aim for immobiliz ed level” of 8000 RU to achieve complete saturation of the chip surface.
# W ith minor deviations, the procedure and conditions outlined below were used f or a ll screening s of an in-house fragment library of 1338 members against individual target proteins. The running buffer was PBS pH 7.4, 0.05% Tween 20, 0.25% DMSO (1% DMSO for Met567). Fragments were stored as 100 mM stock solutions in DMSO. Prior to screening, fragment samples were diluted to 500 μM (1 mM f or Met567) in running buffer.
# Screening was performed in 96- we ll plates at a flow rate of 30 μl min-1 with 1 min sample injection f ollowed by dissociation f or 1 min and surf ace regeneration using 1 M NaCl f or 30 […]
# post-regeneration baseline exceeded the pre- sample baseline by more than 10 RU, a second regeneration cycle with 50% ethylene glycol was used. In order to be able to correct for small variations in DMSO concentration between samples, eight solvent samples ranging from 0.012 to 1.5% DMSO were injected every 40th cycle. To monitor the binding capacity of the NK1, SPH and Met567 surfaces throughout the screening, injections of 500 μM HEPES (NK1), 0.25 μM Met567 (SPH) and 0.2 μM NK1 and 1% DMSO (Met567) were carried out every 40th cycle. The flow cell temperature was 25°C. NK1 and the SPH domain were immobilized on the same chip (channels 2 and 3 respectively) and were theref ore screened in parallel. Met567 was screened separately and results are published in an accompanying paper (W in t er et al. 2015, in revision).
# For data analysis, fir st, all responses were reference and solvent corrected. 1 Next, equilibrium binding for every fragment was determined and hits established by applying several filters: sensorgram shape, upper and lower threshold. Typical sensorgrams from fragment screening show “square curves” in SPR due to the fast on and off rates and fragments not showing this response were discarded from further analysis. Binding levels are represented as response units (RU) but the SPR signal is a convolution of multiple parameters including target coupling density, target -binding activity, target molecular weight and molecular weight of each injected fragment. To be able to identif y hits accurately and to be able to compare responses between different plates and targets, data were normalised against these factors. First the theoretical maximum response for each fragment was calculated using equation 1:
# RRmmm = CCCCCCCC ddCdCdd× MMffmCmdCd (Equation 1)
# This RUmax value diff ers for each protein target because it depends on the molecular weight of the protein and the amount of protein immobilized on the chip (coupling density). The RUmax was then used to calculate the normalised relative SPR response:
# NNNNNNNNNN NNNNr NrN SSR NNNrNrNN = RRcppppcppc× 100% (Equation 2) […]
# fragment should cause upon binding. 100% response would be 1:1 binding wit h levels above 100% implying over-stoichiometric binding. […]
# Fragment library screening to identify small molecule binders
# NK1 [2] = biological target: T1, NK1; experiment: SPR steady-state binding to immobilized NK1 (Biacore T100); parameters: made in house; host or cells: Pichia pastoris
# Experimental: Binding constants of piperazine-like compounds and fragments were determined using a Biacore T100 instrument. NK1 was immobilized on a CM5 chip by amine coupling to a density of 6000 RU. Compounds were stored as 100 mM stock solutions in water and serial dilutions were prepared in the running buffer (PBS pH 7.4, 0.05% Tween 20). The compound solutions were injected onto the surface of the chip at a flow rate of 30 μL min^–1, contact time was 1 min and dissociation time 1 min. Sensorgrams were analysed using the Biacore T100 evaluation software and the binding constants determined.
# NK1 [3] = biological target: T1, NK1; experiment: 1H-15N TROSY-HSQC NMR chemical shift titration of 15N-labelled NK1; type: binding; parameters: made in house; host or cells: Pichia pastoris; conditions: steady-state binding constants; piperazine-like compounds; 0.18 mM NK1, pH 7.2, 310 K; read-out: KD in NMR
# Experimental: Ligand screening was performed by monitoring the chemical shift variations in ^1H-^15N TROSY-HSQC NMR spectra of the uniformly [^15N]-labelled NK1 protein (Fragai et al. 2015, in prep.) upon the addition of increasing concentrations of the investigated compounds.[43]–[45] The experiments were performed using 0.18 mM protein samples in 25 mM Tris, 100 mM NaCl and 0.01% sodium azide, at pH 7.2 with 10% D2O. The spectra were recorded at 310 K on a Bruker AVANCE 900 MHz spectrometer equipped with a TXI cryo-probe. Sample solutions were prepared from 1 M or 100 mM DMSO stock solutions of the ligands. The dissociation constant values (KD) were calculated by plotting the weighted average ^1H and ^15N chemical shifts of the residues experiencing significant variations as a function of ligand concentration added during the titration and considering the one site binding model.[46]
# [4] = biological target: T2, lysine-binding pocket of the kringle domain of NK1 (Homo sapiens, UniProt P14210); experiment: Soaking into NK1 apo crystals, X-ray crystallography; conditions: soaked into NK1 apo crystals
# T2 construct: made in house; host or cells: Pichia pastoris
# T2 sequence (P14210 32-210 isoform P14210-6 limits assumed): as above
# Experimental: Next, three classes of piperazine-like sulphonated compounds containing piperazine ((H)EPPS and PIPES), morpholine (MES and MOPS), or cyclohexane (CHES and CAPS) rings were studied for their binding to NK1 (Table 1), alongside another five sulphonated compounds selected from a chemical fragment library (Table 2).
# NK1 buffered in 150 mM NaCl, 50 mM Tris, pH 7.5 (apo-NK1 and all soaking experiments) was concentrated to ∼20 mg mL^–1 using a Vivaspin device with a 10 kDa cut-off membrane (Sartorius Biolab). Crystallisation was carried out in Linbro plates by the vapour diffusion hanging drop technique using a protein : precipitant ratio of 1 : 1 at 20 °C. Previously NK1 has been crystallised in 18% PEG 4000, 200 mM sodium acetate and 150 mM Tris pH 8.5 as precipitant.[19] Here final crystallisation conditions (19% PEG 4000, 200 mM sodium acetate and 150 mM Tris pH 7.5) were optimised around those to achieve high-resolution apo structure. Details of compound soaking, X-ray data collection and structure determination are given in the ESI ^† section of the manuscript. […]
# For this, 1 M stock solutions were prepared in DMSO (fragments) or water (piperazine- like compounds) and the pH adjusted to a value within their buffering range with either HCl or NaOH. The seven piperazine- like compounds and their respective pH are: HEPES (pH 7.6), (H)EPPS (pH 7.4), PIPES (pH 7.0), MES (pH 5.8), MOPS (pH 7.2), CHES (pH 8.6) and CAPS (pH 9.7). Secondary stocks of the compounds at 50 mM were prepared in the […]
# respective mother liquor and soaked for up to 48 hours.
# MB605 was solubilised in 50% DMSO at 20 mM concentration (1% f inal DMSO concentration in the drop) in order to minimize adverse effects of DMSO on the protein crystal. 25% ethylene glycol was used as the cryoprotective agent.
# X-ray data collection and processing
# X-ray datasets were collected either at the European Synchrotron Radiation Facility (ESRF, Grenoble, France), the Diamond Light Source (DLS, Oxford, UK) or in-house using the X8 PROTEUM (Bruker AXS) at the Department of Biochemistry, University of Cambridge.
# Datasets of at least 180° were collected. Raw data collected at synchrotrons were integrated, merged, scaled and reduced using DENZO and […].2 Raw data […]
# collected in- house were integrated, merged, scaled and reduced using the PROTEUM 2 software package .3 The CCP4 suite of crystallographic programs (Collaborative
# [5] = fragments 500 μM (ESI Tables S3-S7)
# [6] = initial fragment screening, fragments 500 μM (Table 3)
# [7] = steady-state binding constant from SPR, fragment hits (Table 3, text), read-out: KD
# [8] = steady-state binding constants, piperazine-like compounds, immobilized NK1, PBS pH 7.4, read-out: KD in SPR
# [9] = steady-state binding constant from SPR (ESI Tables S3-S7), read-out: KD
Compound,Ranking order (NK1 [1]),SPR response (NK1 [1]; [5]) [%],Kd (NK1 [2]; [9]) [mM],further results
Cc1nc(CC(=O)O)cs1 [MB895],45,53,–,SPR response (NK1 [1]; [6]): 53%; Kd (NK1 [2]; [7]): 0.43 ± 0.05 mM
"O=S(=O)(O)CCN1CCN(CCS(=O)(=O)O)CC1 [PIPES, reference compound]",–,–,–,Kd (NK1 [3]): 45.9 ± 4.7 mM; Kd (NK1 [2]; [8]): 26.6 ± 0.6 mM
NC(=S)c1ncc(C(F)(F)F)cc1N1CCCC1 [MB1218],37,57,17.3,–
O=C(O)c1coc2c1C(=O)CCC2 [MB417],17,87,–,SPR response (NK1 [1]; [6]): 87%; Kd (NK1 [2]; [7]): 0.42 ± 0.04 mM
COc1ccc(C#N)cn1 [MB1261],12,95,–,SPR response (NK1 [1]; [6]): 95%; Kd (NK1 [2]; [7]): 0.35 ± 0.04 mM
Cc1cccc(CN)c1C [MB1274],7,105,1.6,–
O=S(=O)(O)CCNC1CCCCC1 [CHES],–,–,–,Kd (NK1 [3]): 15.7 ± 4.5 mM; Kd (NK1 [2]; [8]): 30.2 ± 3.1 mM; binding in the lysine-binding pocket (crystal structure) [4]: bind the lysine-binding pocket of NK1
Cc1nn(C)c(C)c1N [MB893],36,59,1.5,–
Cc1ccc(C(=O)O)cc1Cl [MB1306],21,77,2.5,–
Cc1cccc(C(N)=O)c1C [MB1284],15,90,–,SPR response (NK1 [1]; [6]): 90%; Kd (NK1 [2]; [7]): 0.86 ± 0.07 mM
CNCc1cccnc1 [MB1290],9,102,1.64,–
Cc1cccc(CO)n1 [MB389],23,72,4.32,–
c1ccc2[nH]ncc2c1 [AT0381],44,53,–,SPR response (NK1 [1]; [6]): 53%; Kd (NK1 [2]; KD): 0.74 ± 0.06 mM
Nc1ccc(OC(F)F)cc1 [MB1293],22,72,5,–
N#Cc1ccsc1N [MB915],24,71,1.6,–
Cc1cccc(C)c1C#N [MB1283],13,94,–,"KD (NK1 [2]; steady-state binding constant from SPR, fragment hits (Table 3, text)): lowest affinity"
Cc1cc(N)[nH]n1 [MB936],39,56,30,–
Cc1nc(-c2ccc(C#N)cc2)cs1 [MB1236],19,83,1.2,–
Cc1ccsc1CN [MB1237],4,118,4.2,–
Cc1cc(Cl)ccc1C(=O)O [MB1318],33,61,–,SPR response (NK1 [1]; [6]): 61%; Kd (NK1 [2]; [7]): 0.36 ± 0.04 mM
CC(=O)Nc1ccccc1F [MB1267],16,90,1.6,–
Nc1ccncc1 [MB404],5,118,2.8,–
"O=S(=O)(O)CCCO [2FA, 3-Hydroxypropane-1-sulphonic acid]",–,–,–,binding in the lysine-binding pocket (crystal structure) [4]: bound in the lysine-binding pocket
Nc1ccc(F)cc1F [MB396],18,83,1.1,–
Cc1cc(C)on1 [MB1299],2,131,2.2,–
